Series [1] has as its system rabbit joint capsule fibroblasts. Briefly: Collagen gel compaction assay. It counts as cell-based. The settings on record: collagen gel seeded with rabbit joint capsule fibroblasts; final blebbistatin concentration 50 μg/mL, treated 24 hours, imaged up to 48 hours. As to the method:
The effect of blebbistatin on rabbit joint capsule fibroblasts (RJCF) was analyzed using a collagen gel compaction assay. RJCFs between passage 4 and 9 were trypsinized using 0.1% trypsin/EDTA for 5 minutes at 37° C. and then the added trypsin was neutralized using DMEM containing 10% FBS. The cell suspension was centrifuged at 230 g for 5 minutes and resuspended in a desired volume of 10% FBS containing DMEM. The collagen gels loaded with RJCFs were prepared by mixing 10×PBS containing phenol red, 1N NaOH, rat tail collagen-I, and the cell suspension to give a final yield of 1×10^6 cells/mL and 2 mg/mL collagen. 500 μL of the collagen gel mixture was added to each well in a 24 well plate and allowed to gelate for 30 minutes in an incubator. After 30 minutes 500 μL of DMEM containing 10% FBS and 50 μg/mL ascorbic acid was added to each well and incubated for 24 hours. After 24 hours, 2.5 mg of blank and blebbistatin loaded nanoparticles dispersed in 50 μL of DMEM or 50 μL of pure drug dissolved in DMSO (1 mg/mL) or 50 μL DMSO or 50 μL PBS were added to each gel so that the final blebbistatin concentration was 50 μg/mL or a corresponding solvent volume for controls. […] Images were acquired at 0, 0.15, 0.5, 1, 2, 3, 4, 5, 6, 7, 24 and 48 hours, and the amount of compaction was measured with ImageJ.

Series [2] has the same test system. Briefly: Fluorescent microsphere displacement assay with time-lapse imaging. Type of series: cell-based. The procedure:
The effect of blebbistatin on cell ability to compact gels was analyzed by monitoring the displacement of fluorescent microspheres. Cell seeded collagen gels were prepared as described above with the addition of a suspension of fluorescent 4 μm microspheres to achieve a concentration of 5 million microspheres/mL. Approximately, 500 μL of this solution were then carefully added around a 6 mm polydimethysiloxane (PDMS) post in a circular PDMS mold with a 20 mm diameter attached to a 35 mm glass bottom Petri dish. This construct was prepared with the purpose of preventing movement of the gel during imaging, after release. Gels were then incubated at 37° C. for 30 minutes to allow polymerization. Once the gels had polymerized, DMEM supplemented with 10% FBS, 1% Penicillin/Streptomyocin, and 0.1% Amphoterecin B was added. After incubation for 24 hours, the gels were treated with either blebbistatin PLGA particles or with blank PLGA particles for 24 hours. Gels were carefully detached from the surrounding PDMS mold and were rinsed twice using DMEM. […] Microsphere displacements were quantified by use of a custom algorithm using digital image correlation to track the movement of individual particles from frame to frame.

A short description of series [3]: Raman spectroscopy and differential scanning calorimetry of drug-loaded particles. The following applies: Raman shifts and DSC melting point unchanged after loading. It counts as physicochemical. The procedure: Confocal Raman spectroscopy was used to characterize the distribution of blebbistatin in the PLGA nanoparticles. Spectra of pure blebbistatin, pure PLGA, blank nanoparticles, and blebbistatin loaded nanoparticles were produced with the 488 nm line of an Ar+ laser (Coherent, Inova 70, 30 mW). After autoalignment of the instrument, the laser beam was focused on the samples using an inverted optical microscope equipped with a 50× objective lens. Spectra were recorded between 80 cm^−1 to 1300 cm^−1 at high resolution. Spectra were spatially resolved at each pixel by passing the backscattered image of the Ar+ laser through a pinhole of diameter 100 μm onto a cooled CCD camera.
Differential scanning calorimetry was employed to analyze the solid state and thermal properties of the nanoparticles. Approximately 2 mg of either lyophilized blank PLGA nanoparticles or drug-loaded PLGA nanoparticles were weighed and hermetically sealed into aluminum pans. An empty aluminum pan was used as a reference. Sample were heated from 25° C. to 300° C. at a rate of 10° C./min under a stream of nitrogen gas flow to produce thermograms for extracting the transition temperature (Tc) and enthalpy of transition (AH).
For orientation: Differential scanning calorimetry records heat flow against a reference as temperature is scanned.

Series [4] relates to Rho/ROCK pathway. Briefly: Real time PCR analysis of Rho/ROCK pathway gene expression. Type of series: cell-based. The settings on record: rabbit joint capsule fibroblasts in collagen gels; 50 μg/mL blebbistatin; 0, 5, 24 and 48 hours; versus blank PLGA particle control. As to the method: Inhibition of Rho/ROCK pathway in RJCFs by blebbistatin nanoparticle was studied using quantitative real-time PCR (qPCR) Two groups of collagen gels were prepared in the same way as described in the collagen gel compaction assay. One group of gels (n=3) was treated with 2.5 mg of blebbistatin nanoparticles dispersed in 50 μL of DMEM so that the final concentration of blebbistatin was 50 μg/mL. The other control group gels (n=3) were also treated in the same way but instead with blank PLGA particles. Measurements were made at four terminal time points of 0, 5, 24 and 48 hours. After each time point the gels were washed twice with DMEM and stored at −80° C. for qPCR analysis.
Total cell RNA was extracted with an RNeasy Mini Kit (Qiagen, Valencia, Calif., USA), by following the manufacturer's protocol. Cells were then homogenized (QIAshredder column, Qiagen), and using an RNeasy column, total RNA was eluted out. The quantity and the quality of the isolated RNA were measured from the absorbance at A260 nm and the ratio of A260/A280 respectively. […] Steady-state mRNA levels were normalized to 18s rRNA and calculated relative to untreated controls by “the relative quantitation using comparative CT” in Multiplex Reactions (PerkinElmer).

Take `Cc1ccc2c(c1)C(=O)C1(O)CCN(c3ccccc3)C1=N2` (centres unmarked) [blebbistatin, Blebbistatin]: in series [1], the “gel area after compaction” value is 87%±1%. Further, in series [2] (cell-seeded collagen gels treated 24 hours, compared with control gels), the “fluorescent microsphere displacements (cell force generation)” value is reported as “significantly lower”. For the same compound, the “fibroblast morphology (time-lapse imaging)” value in series [2] (fibroblasts in collagen gels, compared with untreated gels) was “more spherical fibroblasts”. Moreover, the “stability of the drug after loading into the particles” value in series [3] was “stable and no significant physical/chemical changes occurred”. The “RhoA, ROCK1 and ROCK2 gene expression (qPCR)” value in series [4] is “initial increase in RhoA, ROCKI, and ROCK II genes treated with blebbistatin that then decrease to comparable levels as control”.
